From US7071226B1, “Amino-functionalized 1,2,4-trioxanes useful as antimalarial agents and process for preparation thereof” (Council of Scientific and Industrial Research, priority 2004, dated 2006)
Like-named read-outs stand apart in the source and are kept apart here.

Test system: multidrug resistant strain of Plasmodium yoelii Nigeriensis
Assay: Antimalarial activity against multidrug resistant P. yoelii in Swiss mice (4-day treatment, observed till day 28)
Assay type: in vivo
Settings: Swiss mice; for responders at 96 mg/kg/day / responders at 24 mg/kg/day / responders at 48 mg/kg/day: read-out: Mice alive on day-28 (converted)
Protocol: The antimalarial activity of the test compounds was evaluated in rodent using multidrug resistant strain of Plasmodium yoelii Nigeriensis in Swiss mice.
Random bred Swiss mice of either sex (20±2 gm) were inoculated intraperitoneally with 1×10^5 P. yoelii (MDR) parasites on day zero. Treatments with test compounds were administered to group of 5 mice each at different dose levels ranging between 12–96 mg/kg/day. Treatment was administered in groundnut oil intramuscularly and orally for 4 consecutive days (day 0–3). Blood smears from experimental mice were observed on day 4 and 7, day 10 and thereafter at regular intervals till day 28 or death of animal. Parasitaemia level on day 4 was compared with vehicle control group and percent suppression of parasitaemia in treated groups was calculated. […] The dose at which no parasitaemia develop during the observation period was reported as curative dose.

[1] = Plasmodium yoelii, po, 96 h, 24 mg/kg/day, oral, day 0-3, in groundnut oil, read-out: % Suppression on Day 4
[2] = Plasmodium yoelii, po, 96 h, 48 mg/kg/day, oral, day 0-3, in groundnut oil, read-out: % Suppression on Day 4
[3] = 24 mg/kg/day, oral, day 0-3, 24 mg/kg/day
[4] = 48 mg/kg/day, oral, day 0-3, 48 mg/kg/day
[5] = Plasmodium yoelii, po, 96 h, 96 mg/kg/day, oral, day 0-3, in groundnut oil, read-out: % Suppression on Day 4
[6] = Plasmodium yoelii, po, 672 h, 96 mg/kg/day, oral, day 0-3
[7] = Plasmodium yoelii, im, 96 h, 96 mg/kg/day, im, day 0-3, in groundnut oil, read-out: % Suppression on Day 4
[8] = Plasmodium yoelii, im, 672 h, 96 mg/kg/day, im, day 0-3
[9] = Plasmodium yoelii, po, 672 h, 24 mg/kg/day, oral, day 0-3
[10] = Plasmodium yoelii, po, 672 h, 48 mg/kg/day, oral, day 0-3
[11] = 24 mg/kg/day, oral, day 0-3, in groundnut oil, 24 mg/kg/day
[12] = 48 mg/kg/day, oral, day 0-3, in groundnut oil
[13] = 24 mg/kg/day, oral, day 0-3, in groundnut oil

## C=C(c1ccc(OC)cc1)C1COC2(CCC(Nc3ccccc3-c3ccccc3)CC2)OO1 (stereo not shown) [Compound 4dg, Biphenyl-2-yl-{3-[1-(4-methoxy-phenyl)-vinyl]-1,2,5-trioxa-spiro[5.5]undec-9-yl}-amine]
[1]
  inhibition in vivo at 24 mg/kg/day: 91%
[2]
  inhibition in vivo at 48 mg/kg/day: 100%
[3]
  Mice alive on day-28: 1/5
[4]
  Mice alive on day-28: 3/5

## C=C(c1ccccc1)C1COC2(CCC(Nc3ccccc3-c3ccccc3)CC2)OO1 (stereo not shown) [Compound 4ab, Biphenyl-2-yl-[3-(1-Phenyl-Vinyl)-1,2,5-Trioxa-Spiro[5.5]undec-9-yl]Amine]
[2]
  inhibition in vivo at 48 mg/kg/day: 100%
[5]
  inhibition in vivo at 96 mg/kg/day: 100%
[6]
  responders at 96 mg/kg/day: 100%
[4]
  Mice alive on day-28: 0/5

## C=C(c1ccc(OC)cc1)C1COC2(CCC(Nc3ccc(Cl)cc3)CC2)OO1 (stereo not shown) [Compound 4dc, (4-Chloro-Phenyl)-{3-[1-(4-Methoxy-Phenyl)-Vinyl]-1,2,5-Trioxa-Spiro[5.5]undec-9-yl}-Amine]
[7]
  inhibition in vivo at 96 mg/kg/day: 100%
[8]
  responders at 96 mg/kg/day: 80%
[1]
  inhibition in vivo at 24 mg/kg/day: 100%
[2]
  inhibition in vivo at 48 mg/kg/day: 100%
[5]
  inhibition in vivo at 96 mg/kg/day: 100%
[9]
  responders at 24 mg/kg/day: 80%
[10]
  responders at 48 mg/kg/day: 100%
[6]
  responders at 96 mg/kg/day: 100%

## C=C(c1ccc(C)cc1)C1COC2(CCC(Nc3ccc(-c4ccccc4)cc3)CC2)OO1 (stereo not shown) [Compound 4ej, Biphenyl-4-yl-[3-(1-p-tolyl-vinyl)-1,2,5-trioxa-spiro[5.5]undec-9-yl]-amine]
[7]
  inhibition in vivo at 96 mg/kg/day: 69%
[8]
  responders at 96 mg/kg/day: 0%
[2]
  inhibition in vivo at 48 mg/kg/day: 100%
[5]
  inhibition in vivo at 96 mg/kg/day: 100%
[10]
  responders at 48 mg/kg/day: 40%
[6]
  responders at 96 mg/kg/day: 100%

## C=C(c1ccccc1)C1COC2(CCC(=O)CC2)OO1 (stereo not shown) [Compound 3a, 3-(1-Phenyl-Vinyl)-1,2,5-Trioxaspiro[5.5]undec-9-one]
96 mg/kg/day, im, day 0-3
  Mice alive on day-28: 0/5
96 mg/kg/day, im, day 0-3, in groundnut oil
  % Suppression on Day 4: 99%

## C=C(c1ccc(Cl)cc1)C1COC2(CCC(Nc3ccccc3-c3ccccc3)CC2)OO1 (stereo not shown) [Compound 4cj, Biphenyl-2-yl-{3-[1-(4-Chloro-Phenyl)-Vinyl]-1,2,5-Trioxa-Spiro[5.5]undec-9-yl}-Amine]
[1]
  inhibition in vivo at 24 mg/kg/day: 100%
[2]
  inhibition in vivo at 48 mg/kg/day: 100%
[9]
  responders at 24 mg/kg/day: 40%
[10]
  responders at 48 mg/kg/day: 100%

## C=C(c1ccc(-c2ccccc2)cc1)C1COC2(CCC(Nc3ccc(Cl)cc3)CC2)OO1 (stereo not shown) [Compound 4ba, [3-(1-Biphenyl-4-yl-Vinyl)-1,2,5-Trioxa-Spiro[5.5]undec-9-yl]-(4-Chloro-Phenyl)-Amine]
[5]
  inhibition in vivo at 96 mg/kg/day: 100%
[6]
  responders at 96 mg/kg/day: 100%

## C=C(c1ccc(C)cc1)C1COC2(CCC(Nc3ccc(Cl)cc3)CC2)OO1 (stereo not shown) [Compound 4ec, (4-Chloro-Phenyl)-[3-(1-p-Tolyl-Vinyl)-1,2,5-Trioxa-Spiro[5.5]undec-9-yl]-Amine]
[5]
  inhibition in vivo at 96 mg/kg/day: 100%
[6]
  responders at 96 mg/kg/day: 100%

## C=C(c1ccccc1)C1COC2(CCC(Nc3ccc4c(c3)-c3ccccc3C4)CC2)OO1 (stereo not shown) [Compound 4ae]
96 mg/kg/day, oral, day 0-3
  Mice alive on day-28: 5/5
96 mg/kg/day, oral, day 0-3, in groundnut oil
  % Suppression on Day 4: 100%

## C=C(c1ccccc1)C1COC2(CCC(Nc3ccc(-c4ccccc4)cc3)CC2)OO1 (stereo not shown) [Compound 4ad, Biphenyl-4-yl-[3-(1-Phenyl-Vinyl)-1,2,5-Trioxa-Spiro[5.5]undec-9-yl]Amine]
Plasmodium yoelii, po, 96 h, 12 mg/kg/day, oral, day 0-3, in groundnut oil, read-out: % Suppression on Day 4
  inhibition in vivo at 12 mg/kg/day: 99%
[1]
  inhibition in vivo at 24 mg/kg/day: 100%
[2]
  inhibition in vivo at 48 mg/kg/day: 100%
[5]
  inhibition in vivo at 96 mg/kg/day: 100%
Plasmodium yoelii, po, 672 h, 12 mg/kg/day, oral, day 0-3, read-out: Mice alive on day-28
  responders at 12 mg/kg/day: 0%
[9]
  responders at 24 mg/kg/day: 60%
[10]
  responders at 48 mg/kg/day: 100%
[6]
  responders at 96 mg/kg/day: 100%

## C=C(c1ccc(OC)cc1)C1COC2(CCC(Nc3ccccc3-c3ccccc3)CC2)OO1 (stereo not shown) [Compound 4dh, Biphenyl-2-yl-{3-[1-(4-methoxy-phenyl)-vinyl]-1,2,5-trioxa-spiro[5.5]undec-9-yl}-amine]
[11]
  % Suppression on Day 4: 100%
[3]
  Mice alive on day-28: 5/5
[12]
  % Suppression on Day 4: 100%
[4]
  Mice alive on day-28: 5/5

## C=C(c1ccc(C)cc1)C1COC2(CCC(Nc3cc(Cl)cc(Cl)c3)CC2)OO1 (stereo not shown) [Compound 4ed, (3,5-Dichloro-Phenyl)-[3-(1-Tolyl-Vinyl)-1,2,5-Trioxa-Spiro[5.5]undec-9-yl]-Amine]
24 mg/kg/day, oral, day 0-3
  Mice alive on day-28: 0/5
[11]
  % Suppression on Day 4: 95%
[12]
  % Suppression on Day 4: 100%
[4]
  Mice alive on day-28: 4/5

## C=C(c1ccc(C)cc1)C1COC2(CCC(Nc3cccc(C(F)(F)F)c3)CC2)OO1 (stereo not shown) [Compound 4en, [3-(1-p-Tolyl-vinyl)-1,2,5-trioxa-spiro[5.5]undec-9-yl]-(3-trifluoromethyl-phenyl)-amine]
[5]
  inhibition in vivo at 96 mg/kg/day: 100%
[6]
  responders at 96 mg/kg/day: 60%

## C=C(c1ccc(C)cc1)C1COC2(CCC(Nc3ccc(OC)cc3)CC2)OO1 (stereo not shown) [Compound 4eb, (4-Methoxy-Phenyl)-[3-(1-p-Tolyl-Vinyl)-1,2,5-Trioxa-Spiro[5.5]undec-9-yl]-Amine]
[7]
  inhibition in vivo at 96 mg/kg/day: 93%
[8]
  responders at 96 mg/kg/day: 0%
[5]
  inhibition in vivo at 96 mg/kg/day: 100%
[6]
  responders at 96 mg/kg/day: 100%

## C=C(c1ccc(Cl)cc1)C1COC2(CCC(Nc3cc(Cl)cc(Cl)c3)CC2)OO1 (stereo not shown) [Compound 4cf, {3-[1-(4-Chloro-phenyl)-vinyl]-1,2,5-trioxa-spiro[5.5]undec-9-yl}-(3,5-dichloro-phenyl)-amine]
[13]
  % Suppression on Day 4: 100%
[3]
  Mice alive on day-28: 1/5
[12]
  % Suppression on Day 4: 100%
[4]
  Mice alive on day-28: 2/5

## C=C(c1ccc(OC)cc1)C1COC2(CCC(Nc3cccc4ccccc34)CC2)OO1 (stereo not shown) [Compound 4df, {3-[1-(4-Methoxy-phenyl)-vinyl]-1,2,5-trioxa-spiro[5.5]undec-9-yl}-naphthalen-1-yl-amine]
[2]
  inhibition in vivo at 48 mg/kg/day: 100%
[5]
  inhibition in vivo at 96 mg/kg/day: 100%
[10]
  responders at 48 mg/kg/day: 40%
[6]
  responders at 96 mg/kg/day: 100%

## C=C(c1ccc(Cl)cc1)C1COC2(CCC(Nc3ccc(C)cc3)CC2)OO1 (stereo not shown) [Compound 4cb, {3-[1-(4-Chloro-Phenyl)-Vinyl]-1,2,5-Trioxa-Spiro[5.5]undec-9-yl}-p-Tolyl-Amine]
[2]
  inhibition in vivo at 48 mg/kg/day: 100%
[10]
  responders at 48 mg/kg/day: 100%

## C=C(c1ccc(Cl)cc1)C1COC2(CCC(Nc3ccc(Cl)cc3)CC2)OO1 (stereo not shown) [Compound 4cc]
24 mg/kg/day, oral, day 0-3
  Mice alive on day-28: 4/5
[13]
  % Suppression on Day 4: 100%
48 mg/kg/day, oral, day 0-3
  Mice alive on day-28: 5/5
[12]
  % Suppression on Day 4: 100%

## C=C(c1ccc(C)cc1)C1COC2(CCC(Nc3cccc4ccccc34)CC2)OO1 (stereo not shown) [Compound 4eg, Naphthalen-1-yl-[3-(1-p-Tolyl-Vinyl)-1,2,5-Trioxa-Spiro[5.5]undec-9-yl]-Amine]
[5]
  inhibition in vivo at 96 mg/kg/day: 100%
[6]
  responders at 96 mg/kg/day: 100%

## C=C(c1ccccc1)C1COC2(CCC(Nc3cccc(C(F)(F)F)c3)CC2)OO1 (stereo not shown) [Compound 4ah, [3-(1-Phenyl-Vinyl)-1,2,5-Trioxa-Spiro[5.5]undec-9-yl]-(3-Trifluoromethyl-Phenyl)-Amine]
[7]
  inhibition in vivo at 96 mg/kg/day: 83%
[8]
  responders at 96 mg/kg/day: 0%
[1]
  inhibition in vivo at 24 mg/kg/day: 100%
[2]
  inhibition in vivo at 48 mg/kg/day: 100%
[5]
  inhibition in vivo at 96 mg/kg/day: 100%
[9]
  responders at 24 mg/kg/day: 20%
[10]
  responders at 48 mg/kg/day: 100%
[6]
  responders at 96 mg/kg/day: 100%

## C=C(c1ccc(-c2ccccc2)cc1)C1COC2(CCC(Nc3ccccc3C(F)(F)F)CC2)OO1 (stereo not shown) [Compound 4bg, [3-(1-Biphenyl-4-yl-vinyl)-1,2,5-trioxa-spiro[5.5]undec-9-yl]-(2-trifluoromethyl-phenyl)-amine]
[5]
  inhibition in vivo at 96 mg/kg/day: 100%
[6]
  responders at 96 mg/kg/day: 40%
